# US20250136607A1 (REGOR PHARMACEUTICALS, INC., priority 2021, published 2025)
# Biological target: Protein arginine deiminase 4 (PAD4) (Homo sapiens, UniProt Q9UM07)
# Assay: PAD4 ammonia release assay
# Type: biochemical
# Conditions: PAD4 activity comparison; read-out: PAD4 Ammonia assay IC50
# Description: 1) Compound preparation: The compounds were diluted to 80× final concentrations. 2) The compounds were transferred to a 384-well assay plate by Tecan. DMSO: 1.25%. 3) Preparation of 1×Assay buffer: 100 mM HEPES, PH=8.0, 2 mM CaCl2, 50 mM NaCl, 0.1 mM TCEP, 0.6 mg/ml BSA. 4) 2× enzyme working solution (PAD4:20 nM) was prepared with assay buffer, and 10 μL of the obtained working solution were added to the 384-well assay plates. 5) The plate was centrifuged at 1000 rpm for 1 min. 6) After the centrifuge, the plate was incubated at RT for 15 min. 7) 2×BAEE substrate mix (600 μM) was prepared with assay buffer and 10 μL of the obtained substrate mix were added to each well. 8) The plate was centrifuged at 1000 rpm for 1 min and then incubated at RT for 60 min. 9) 1.5× detection mix (DTT:4 mM, OPA:3 mM, EDTA: 30 mM) was prepared, and 10 μL of the mix were added to the plate. 10) The plate was centrifuged at 1000 rpm for 1 min and then incubated at RT for 120 min. 11) The 384-well plates were placed into the Envision (PerkinElmer) and the assay data were collected.
# The percent (%) inhibition at each concentration of compound was calculated based on and relative to the signal in the HPE (50 μM ref. compound) and ZPE (1.25% DMSO) wells included within each assay plate. The HPE worked as 100% inhibition, and the ZPE worked as 0% inhibition. The concentrations and % inhibition values for tested compounds were plotted and the concentration of compound required for 50% inhibition (IC50) was determined with a Four-parameter logistic dose response equation. The endpoint value (IC50) for the reference compound was evaluated in each experiment as a quality control measure. If the endpoint value is within 3-fold of the expected value, then the experiment quality is deemed as acceptable. The results are provided in Table 1 below. ≤0.1 μM=“++++”; >0.1 and ≤0.5 μM=“+++”; >0.5 and ≤5.0 μM=“++”; >5.0 μM=“+”. “−”=not available.
# Protein arginine deiminase 4 (PAD4), sequence (Q9UM07 whole entry): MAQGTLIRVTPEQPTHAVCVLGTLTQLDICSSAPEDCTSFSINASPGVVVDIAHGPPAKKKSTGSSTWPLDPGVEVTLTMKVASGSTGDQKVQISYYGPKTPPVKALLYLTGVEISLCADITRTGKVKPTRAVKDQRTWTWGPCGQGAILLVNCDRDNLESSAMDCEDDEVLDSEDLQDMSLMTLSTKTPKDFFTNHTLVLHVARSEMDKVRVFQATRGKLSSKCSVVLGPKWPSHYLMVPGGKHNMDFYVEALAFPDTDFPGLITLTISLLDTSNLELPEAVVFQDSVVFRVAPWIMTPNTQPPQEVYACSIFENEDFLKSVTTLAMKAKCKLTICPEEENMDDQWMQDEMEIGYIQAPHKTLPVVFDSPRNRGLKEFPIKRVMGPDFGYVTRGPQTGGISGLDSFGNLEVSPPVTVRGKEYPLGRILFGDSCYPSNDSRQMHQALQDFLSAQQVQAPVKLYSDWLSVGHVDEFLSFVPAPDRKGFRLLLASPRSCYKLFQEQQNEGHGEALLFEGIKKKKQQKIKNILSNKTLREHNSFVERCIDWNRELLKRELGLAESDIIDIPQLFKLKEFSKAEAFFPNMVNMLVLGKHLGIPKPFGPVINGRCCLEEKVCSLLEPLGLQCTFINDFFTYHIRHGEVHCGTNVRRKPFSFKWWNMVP
row,Structure (SMILES),IC50 [µM]
1,"Cn1c(-c2cc3cccc4c3n2CCN4)nc2cc(C(=O)N3C[C@H]4CC[C@@H]3[C@@H]4N)ccc21 [Example 168, ((1R,4R,7R)-7-amino-2-azabicyclo[2.2.1]heptan-2-yl)(2-(2,3-dihydro-1H-pyrrolo[1,2,3-de]quinoxalin-5-yl)-1-methyl-1H-benzo[d]imidazol-5-yl)methanone]",2.31

# Same assay, conditions: PAD4 ammonia release assay, BAEE substrate, 60 min at RT; read-out: Average IC50 Abs
row,Structure (SMILES),IC50 [µM]
1,"Cn1c(-c2cc3cccc4c3n2CCN4)nc2cc(C(=O)N3C[C@H]4CC[C@@H]3[C@@H]4N)ccc21 [Example 168, ((1R,4R,7R)-7-amino-2-azabicyclo[2.2.1]heptan-2-yl)(2-(2,3-dihydro-1H-pyrrolo[1,2,3-de]quinoxalin-5-yl)-1-methyl-1H-benzo[d]imidazol-5-yl)methanone]",0.5 to 5
2,"COc1cc(C(=O)N2C[C@H](N)C[C@@H](F)C2)cc2nc(-c3cc4cccc5c4n3CCN5CCCNC(C)=O)n(C)c12 [Example 1, N-(3-(5-(5-((3R,5R)-3-amino-5-fluoropiperidine-1-carbonyl)-7-methoxy-1-methyl-1H-benzo[d]imidazol-82-yl)-2,3-dihydro-1H-pyrrolo[1,2,3-de]quinoxalin-1-yl)propyl)acetamide]",0.5 to 5
3,"Cn1c(-c2cc3ccc(C(F)(F)F)c4c3n2C(C2CC2)CN4)nc2cc(C(=O)N3C[C@H]4CC[C@@H]3[C@@H]4N)cc(F)c21 (stereo partly drawn) [Example 121, [(1R,4R,7R)-7-amino-2-azabicyclo[2.2.1]heptan-2-yl]-[2-[11-cyclopropyl-7-(trifluoromethyl)-1,9-diazatricyclo[6.3.1.0^4,12]dodeca-2,4,6,8(12)-tetraen-2-yl]-7-fluoro-1-methyl-benzimidazol-5-yl]methanone]",≤ 0.1
4,"Cn1c(-c2cc3ccc(C#N)c4c3n2[C@H](C2CC2)CN4)nc2cc(C(=O)N3C[C@H]4CC[C@@H]3[C@@H]4N)cc(F)c21 (single isomer, unassigned) [Example 116]",0.5 to 5
5,"COc1cc(C(=O)N2CCC[C@@H](N)C2)cc2nc(-c3cc4cccc5c4n3CCN5C3CC(N)C3)n(C)c12 (stereo partly drawn) [Example 32, (R)-(2-(1-(3-aminocyclobutyl)-2,3-dihydro-1H-pyrrolo[1,2,3-de]quinoxalin-5-yl)-7-methoxy-1-methyl-1H-benzo[d]imidazol-5-yl)(3-aminopiperidin-1-yl)methanone]",0.5 to 5
6,"CC[C@@H]1CNc2cccc3cc(-c4nc5cc(C(=O)N6C[C@H]7CC[C@@H]6[C@@H]7N)cc(F)c5n4C)n1c23 [Example 73, ((1R,4R,7R)-7-amino-2-azabicyclo[2.2.1]heptan-2-yl)(2-((R)-3-ethyl-2,3-dihydro-1H-pyrrolo[1,2,3-de]quinoxalin-5-yl)-7-fluoro-1-methyl-1H-benzo[d]imidazol-5-yl)methanone]",> 5
7,"Cn1c(-c2cc3cc(C#N)cc4c3n2[C@@H](C2CC2)CN4)nc2cc(C(=O)N3C[C@H]4CC[C@@H]3[C@@H]4N)cc(F)c21 [Example 118, (S)-5-(5-((1R,4R,7R)-7-amino-2-azabicyclo[2.2.1]heptane-2-carbonyl)-7-fluoro-1-methyl-1H-benzo[d]imidazol-2-yl)-3-cyclopropyl-2,3-dihydro-1H-pyrrolo[1,2,3-de]quinoxaline-8-carbonitrile]",0.1 to 0.5
8,"CCC1CNc2c(F)ccc3cc(-c4nc5cc(C(=O)N6C[C@H]7CC[C@@H]6[C@@H]7N)cc(F)c5n4C)n1c23 (stereo partly drawn) [Example 131, ((1R,4R,7R)-7-amino-2-azabicyclo[2.2.1]heptan-2-yl)(2-(3-ethyl-9-fluoro-2,3-dihydro-1H-pyrrolo[1,2,3-de]quinoxalin-5-yl)-7-fluoro-1-methyl-1H-benzo[d]imidazol-5-yl)methanone]",0.1 to 0.5
9,"CCC1C(=O)Nc2cccc3cc(-c4nc5cc(C(=O)N6C[C@H]7CC[C@@H]6[C@@H]7N)cc(F)c5n4C)n1c23 (stereo partly drawn) [Example 129, 5-(5-((1R,4R,7R)-7-amino-2-azabicyclo[2.2.1]heptane-2-carbonyl)-7-fluoro-1-methyl-1H-benzo[d]imidazol-2-yl)-3-ethyl-1H-pyrrolo[1,2,3-de]quinoxalin-2(3H)-one]",0.1 to 0.5
10,"Cn1c(-c2cc3ccc4c(Cl)c[nH]c4c3n2CC2CC2)nc2cc(C(=O)N3C[C@H]4CC[C@@H]3[C@@H]4N)cc(F)c21 [Example 149, ((1R,4R,7R)-7-amino-2-azabicyclo[2.2.1]heptan-2-yl)(2-(6-chloro-1-(cyclopropylmethyl)-1,8-dihydropyrrolo[3,2-g]indol-2-yl)-7-fluoro-1-methyl-1H-benzo[d]imidazol-5-yl)methanone]",0.5 to 5
11,"CCC1CNc2c(C)ccc3cc(-c4nc5cc(C(=O)N6C[C@H]7CC[C@@H]6[C@@H]7N)cc(F)c5n4C)n1c23 (stereo partly drawn) [Example 132, ((1R,4R,7R)-7-amino-2-azabicyclo[2.2.1]heptan-2-yl)(2-(3-ethyl-9-methyl-2,3-dihydro-1H-pyrrolo[1,2,3-de]quinoxalin-5-yl)-7-fluoro-1-methyl-1H-benzo[d]imidazol-5-yl)methanone]",0.1 to 0.5
12,"Cn1c(-c2cc3cccc4c3n2[C@H](C2CC2)CN4)nc2cc(C(=O)N3C[C@H]4CC[C@@H]3[C@@H]4N)cc(F)c21 (single isomer, unassigned) [Example 109]",0.5 to 5
13,"CCC1CN(CCCO)c2cccc3cc(-c4nc5cc(C(=O)N6C[C@H](N)C[C@@H](F)C6)cc(F)c5n4CC)n1c23 (stereo partly drawn) [Example 99, ((3R,5R)-3-amino-5-fluoropiperidin-1-yl)(1-ethyl-2-(3-ethyl-1-(3-hydroxypropyl)-2,3-dihydro-1H-pyrrolo[1,2,3-de]quinoxalin-5-yl)-7-fluoro-1H-benzo[d]imidazol-5-yl)methanone]",0.1 to 0.5
14,"CCC1CN(CCO)c2cccc3cc(-c4nc5cc(C(=O)N6C[C@H](N)C[C@@H](F)C6)cc(OC)c5n4C)n1c23 (stereo partly drawn) [Example 79, ((3R,5R)-3-amino-5-fluoropiperidin-1-yl)(2-(3-ethyl-1-(2-hydroxyethyl)-2,3-dihydro-1H-pyrrolo[1,2,3-de]quinoxalin-5-yl)-7-methoxy-1-methyl-1H-benzo[d]imidazol-5-yl)methanone]",0.1 to 0.5
15,COc1cc(C(=O)N2CCC[C@@H](N)C2)cc2nc(-c3cc4cccc5c4n3CCN5C)n(C)c12 [Example 25],> 5
16,"COc1cc(C(=O)N2C[C@H](N)C[C@@H](F)C2)cc2nc(-c3cc4cccc5c4n3CCN5CCCO)n(CC(F)F)c12 [Example 51, ((3R,5R)-3-amino-5-fluoropiperidin-1-yl)(1-(2,2-difluoroethyl)-2-(1-(3-hydroxypropyl)-2,3-dihydro-1H-pyrrolo[1,2,3-de]quinoxalin-5-yl)-7-methoxy-1H-benzo[d]imidazol-5-yl)methanone]",0.1 to 0.5
17,"CCC1CN(CCCO)c2cccc3cc(-c4nc5cc(C(=O)N6C[C@H]7CC[C@@H]6[C@@H]7N)cc(F)c5n4Cc4ccco4)n1c23 (stereo partly drawn) [Example 93, ((1R,4R,7R)-7-amino-2-azabicyclo[2.2.1]heptan-2-yl)(2-(3-ethyl-1-(3-hydroxypropyl)-2,3-dihydro-1H-pyrrolo[1,2,3-de]quinoxalin-5-yl)-7-fluoro-1-(furan-2-ylmethyl)-1H-benzo[d]imidazol-5-yl)methanone]",0.1 to 0.5
18,"COc1cc(C(=O)N2CC3C(N)C3C2)cc2nc(-c3cc4cccc5c4n3CCN5CCCO)n(CC3CC3)c12 (centres unmarked) [Example 54, (6-amino-3-azabicyclo[3.1.0]hexan-3-yl)(1-(cyclopropylmethyl)-2-(1-(3-hydroxypropyl)-2,3-dihydro-1H-pyrrolo[1,2,3-de]quinoxalin-5-yl)-7-methoxy-1H-benzo[d]imidazol-5-yl)methanone]",> 5
19,"CCC1C(=O)Nc2cccc3cc(-c4nc5cc(C(=O)N6C[C@H]7CC[C@@H]6[C@@H]7N)cnn5c4C)n1c23 (stereo partly drawn) [Example 137, 2-[7-[(1R,4R,7R)-7-amino-2-azabicyclo[2.2.1]heptane-2-carbonyl]-3-methyl-imidazo[1,2-b]pyridazin-2-yl]-11-ethyl-1,9-diazatricyclo[6.3.1.04,12]dodeca-2,4,6,8(12)-tetraen-10-one]",0.5 to 5
20,"COc1cc(C(=O)N2C[C@H](N)C[C@@H](F)C2)cc2nc(-c3cc4cccc5c4n3CCN5C(=O)CO)n(C)c12 [Example 28, 1-(5-(5-((3R,5R)-3-amino-5-fluoropiperidine-1-carbonyl)-7-methoxy-1-methyl-1H-benzo[d]imidazol-2-yl)-2,3-dihydro-1H-pyrrolo[1,2,3-de]quinoxalin-1-yl)-2-hydroxyethan-1-one]",0.5 to 5
21,"CCC1CNc2nccc3cc(-c4nc5cc(C(=O)N6C[C@H](N)C[C@@H](F)C6)cc(F)c5n4C)n1c23 (stereo partly drawn) [Example 136, ((3R,5R)-3-amino-5-fluoropiperidin-1-yl)(2-(3-ethyl-4,5-dihydro-3H-2a, 5,6-triazaacenaphthylen-2-yl)-7-fluoro-1-methyl-1H-benzo[d]imidazol-5-yl)methanone]",> 5
22,"CN1C(=O)Cc2c1ccc1cc(-c3nc4cc(C(=O)N5C[C@H]6CC[C@@H]5[C@@H]6N)cc(F)c4n3C)n(CC3CC3)c21 [Example 146, 2-(5-((1R,4R,7R)-7-amino-2-azabicyclo[2.2.1]heptane-2-carbonyl)-7-fluoro-1-methyl-1H-benzo[d]imidazol-2-yl)-1-(cyclopropylmethyl)-6-methyl-6,8-dihydropyrrolo[2,3-e]indol-7(1H)-one]",> 5
